Laboratory results: patent US9730945B2, “Diagnosis of autism spectrum disorders and its treatment with an antagonist or inhibitor of the 5-HT2c receptor signaling pathway” (Massachusetts Institute of Technology, priority 2009, dated 2017)
Entries after “also recorded” stand apart in the source; their conditions may differ.

Test system: Pten haploinsufficient mice
Test: Social approach behavior assay (three-chamber apparatus)
Type: in vivo
Settings: female Pten haploinsufficient mice, 8 weeks of age, IP 0.3 mg/kg, 20 minutes prior to assay, quantified over 10 minutes, preliminary test
Method: FIG. 5: Effects of the 5-HT2cR antagonist SB 242084 on social approach behavior in Pten haploinsufficient mice. The mice tested were female littermates, 8 weeks of age. The mice were given an IP injection of 0.3 mg/kg of SB 242084 or vehicle, 20 minutes prior to start of the assay. A social stimulus mouse was placed in chamber 1 and an identical empty cage was placed in chamber 3. The percent time the subject mouse spent interacting with the stimulus mouse was quantified over 10 minutes. […] For vehicle treated groups, n=6; for SB 242084-treated groups, n=8. * P<0.05, ANOVA within group comparison between chamber 1 and chamber 3. In each group of bars, the order is: left bar=chamber 1, middle bar=chamber 2, right bar=chamber 3.
A mouse was placed in an open top acrylic box (24″L×12″W×12″H) with opaque walls. The box was divided into three (8″L×12″W) chambers separated by opaque acrylic panels with holes providing passage between chambers. For reference, the chambers were numbered, from left to right 1, 2, and 3. […] The resulting video was scored with computer assistance by importing into ImageJ software (http://rsb.info.nih.gov/ij/), where each chamber was defined as a region of interest using a script written in-house, and the number of frames in which the mouse was in each region of interest was quantified. […]

SMILES: Cc1cc2c(cc1Cl)N(C(=O)Nc1ccc(Oc3cccnc3C)nc1)CC2 [SB 242084, 6-Chloro-5-methyl-1-[[2-(2-methylpyrid-3-yloxy)pyrid-5-yl]carbamoyl]indoline]
- social approach behavior (percent time interacting with stimulus mouse, chamber 1 vs chamber 3): can offset deficits in social approach behavior; also recorded: significant preference for interacting with the stimulus mouse
